The source of these data is patent publication US20170304388A1, “NEW INDICATION OF CARDIOVASCULAR DRUGS FOR PREPARATION OF CANCER INHIBITION PHARMACEUTICAL COMPOSITION” (LAUNX BIOMEDICAL CO., LTD., priority 2014, published 2017).

Usually viability stands for a read-out of living cells in per cent, often relative to untreated cells.

Molecules are shown by their SMILES. Structures can show the parent of a compound that is named as a salt. Where two headings read alike, the source gives them in different places.

What all share (type): cell-based
Assay [1] has as its system MCF7 (Mammary Gland, Adenocarcinoma). Description: Cell viability analysis (WST-1), MCF7. The note with it: Homo sapiens, WST-1, OD450 nm, read-out: survival rate (viability) of cancer cells, MCF7. On the technique in general: Tetrazolium assays rely on reduction of a dye to a coloured formazan, in cell work by metabolically active cells.
The subject of assay [2] is A549 (Lung Adenocarcinoma). Description: Cell viability analysis (WST-1), A549. The note with it: Homo sapiens, WST-1, OD450 nm, read-out: survival rate (viability) of cancer cells, A549.
The test system of assay [3] is H1650 (Lung Adenocarcinoma). Put plainly: Cell viability analysis (WST-1), H1650. The note with it: Homo sapiens, WST-1, OD450 nm, read-out: survival rate (viability) of cancer cells, H1650.
Assay [4] has as its system HCT116 (Colorectal Carcinoma). Put plainly: Cell viability analysis (WST-1), HCT116. The note with it: Homo sapiens, WST-1, OD450 nm, read-out: survival rate (viability) of cancer cells, HCT116 (WT).
In assay [5] the test system is cancer cell lines. Description: Growth inhibitory effects on the panel of cancer cell lines. The note with it: drug 10 μM, 72 hours; for Numbers of inhibitory effect on cancer cell line: count of cancer cell lines inhibited; for inhibition effect on different cancer cell lines (in words): WST-1.
Assay [6] concerns MKN-45 (Gastric Adenocarcinoma). Description: Cell viability analysis (WST-1), MKN-45. The note with it: Homo sapiens, WST-1, OD450 nm, read-out: survival rate (viability) of cancer cells, MKN-45.
Assay [7] concerns TSGH-8301 (Urinary Bladder Carcinoma). Put plainly: Cell viability analysis (WST-1), TSGH-8301. The note with it: WST-1, OD450 nm, read-out: survival rate (viability) of cancer cells, TSGH.
Assay [8] concerns AGS (Gastric Adenocarcinoma). Put plainly: Cell viability analysis (WST-1), AGS. The note with it: WST-1, OD450 nm, read-out: survival rate (viability) of cancer cells, AGS.
Assay [9] has as its system LoVo (Colorectal Adenocarcinoma). Put plainly: Cell viability analysis (WST-1), LoVo. The note with it: Homo sapiens, LoVo, WST-1, OD450 nm, read-out: survival rate (viability) of cancer cells, LoVo.
Assay [10] concerns HL-60 (Acute Promyelocytic Leukemia). Description: Cell viability analysis (WST-1), HL-60. The note with it: Homo sapiens, HL-60; Table 3; drug 10 μM, 72 hours, WST-1, OD450 nm; read-out: survival rate (viability) of cancer cells, HL-60.
Assay [11] relates to HeLa (Cervix Adenocarcinoma). Description: Cell viability analysis (WST-1), HeLa. The note with it: Homo sapiens, HeLa, WST-1, OD450 nm, read-out: survival rate (viability) of cancer cells, HeLa.
The test system of assay [12] is HepG2 (Hepatocellular Carcinoma). Put plainly: Cell viability analysis (WST-1), HepG2. The note with it: Homo sapiens, WST-1, OD450 nm, read-out: survival rate (viability) of cancer cells, HepG2.
The subject of assay [13] is A375 (Amelanotic Melanoma). Put plainly: Cell viability analysis (WST-1), A375. The note with it: Homo sapiens, WST-1, OD450 nm, lower viability = better inhibition, read-out: survival rate (viability) of cancer cells, A375.
Assay [14] relates to PC3 (Prostate Adenocarcinoma). Put plainly: Cell viability analysis (WST-1), PC3. The note with it: WST-1, OD450 nm, read-out: survival rate (viability) of cancer cells, PC3.
The mark [15] stands for this setting: MCF7, 72 h, Table 3, drug 10 μM.
[16] abbreviates: A549, 72 h, Table 3, drug 10 μM.
Where [17] appears, read: NCI-H1650, 72 h, Table 3, drug 10 μM.
[18] abbreviates: HCT-116, 72 h, Table 3, drug 10 μM.
Where [19] appears, read: MKN-45, 72 h, Table 3, drug 10 μM.
Where [20] appears, read: HepG2, 72 h, Table 3, drug 10 μM.
Where [21] appears, read: A-375, 72 h, Table 3, drug 10 μM.

On to `CCN(C)C(=O)Oc1cccc([C@H](C)N(C)C)c1` [Rivastigmine tartrate (Exelon), Rivastigmine tartrate], for which the viability at 10 µM in assay [1] (MCF7, Table 3, drug 10 μM, 72 hours) was 67.5%; in [2] (A549, Table 3, drug 10 μM, 72 hours) it was 65.9%; in [3] (NCI-H1650, Table 3, drug 10 μM, 72 hours), 83.6%; in assay [4] (HCT-116, Table 3, drug 10 μM, 72 hours), 118%; in assay [6] (MKN-45, Table 3, drug 10 μM, 72 hours), 93.8%; in [7] (Table 3, drug 10 μM, 72 hours) it was 83.9%. The viability at 10 µM amounted to 63.6% in [8] (Table 3, drug 10 μM, 72 hours); 85.4% in [9] (Table 3, drug 10 μM, 72 hours); 103% in [10]; 90.1% in assay [11] (Table 3, drug 10 μM, 72 hours); 93.7% in assay [12] (HepG2, Table 3, drug 10 μM, 72 hours); 76.1% in [13] (A-375, Table 3, drug 10 μM, 72 hours). The viability at 10 µM in assay [14] (Table 3, drug 10 μM, 72 hours) came out at 85.4%. In assay [5], the “Numbers of inhibitory effect on cancer cell line” value (“Numbers of inhibitory effect” below) is given as 0. Besides, the “inhibition effect on different cancer cell lines (in words)” value in assay [5] was “significant inhibition effect”.
As for `COCCCOc1cc(C[C@@H](C[C@H](N)[C@@H](O)C[C@H](C(=O)NCC(C)(C)C(N)=O)C(C)C)C(C)C)ccc1OC` [Aliskiren hemifumarate], the viability at 10 µM in assay [1] (setting [15]) came to 99.1%; in assay [2] (setting [16]), 92%; in assay [3] (setting [17]), 79.8%; in assay [4] (setting [18]), 97.2%; in assay [6] (setting [19]) it was 85.1%; in [7] (72 h, Table 3, drug 10 μM), 73.3%. Also, the viability at 10 µM stood at 81.8% in assay [8] (72 h, Table 3, drug 10 μM); 99.5% in assay [9] (72 h, Table 3, drug 10 μM); 98.5% in [10]; 108% in [11] (72 h, Table 3, drug 10 μM); 94.2% in [12] (setting [20]); 91.2% in assay [13] (setting [21]). The viability at 10 µM in [14] (72 h, Table 3, drug 10 μM) amounted to 89%. Moreover, the “Numbers of inhibitory effect” value in assay [5] was determined as 0. Moreover, in [5], the “inhibition effect on different cancer cell lines (in words)” value is reported as “significant inhibition effect”.
Take `C#CCN[C@@H]1CCc2ccccc21` [Rasagiline mesylate]: the viability at 10 µM in assay [1] (setting [15]) stood at 88.3%; in assay [2] (setting [16]) it was 91.3%; in assay [3] (setting [17]), 71.8%; in assay [4] (setting [18]) it was 142%; in assay [6] (setting [19]), 87.7%; in [7] (72 h, Table 3, drug 10 μM) it was 74.2%. The viability at 10 µM in assay [8] (72 h, Table 3, drug 10 μM) was determined as 75.8%; in assay [9] (72 h, Table 3, drug 10 μM), 94%; in assay [10], 105%; in assay [11] (72 h, Table 3, drug 10 μM), 88.1%; in [12] (setting [20]), 92%; in assay [13] (setting [21]) it was 76.9%. In [14] (72 h, Table 3, drug 10 μM), the viability at 10 µM was 103%. Further, the “Numbers of inhibitory effect” value in assay [5] was determined as 0. Also, in assay [5], the “inhibition effect on different cancer cell lines (in words)” value was “significant inhibition effect”.
`CC(=O)O[C@H]1C[C@@H]2CC[C@@H]3[C@H](CC[C@@]4(C)[C@H]3C[C@H]([N+]3(C)CCCCC3)[C@@H]4OC(C)=O)[C@@]2(C)C[C@@H]1[N+]1(C)CCCCC1` [Pancuronium (Pavulon), Pancuronium]: the viability at 10 µM in [1] (setting [15]) was 110%; in assay [2] (setting [16]), 100%; in assay [3] (setting [17]) it was 91.7%; in assay [4] (setting [18]) it was 102%; in assay [6] (setting [19]), 95.3%; in assay [7] (72 h, Table 3, drug 10 μM) it was 68.3%. The viability at 10 µM in assay [8] (72 h, Table 3, drug 10 μM) is 120%; in assay [9] (72 h, Table 3, drug 10 μM), 79.8%; in assay [10], 109%; in assay [11] (72 h, Table 3, drug 10 μM) it was 83.3%; in [12] (setting [20]), 92.7%; in [13] (setting [21]), 75.4%. Moreover, the viability at 10 µM in assay [14] (72 h, Table 3, drug 10 μM) is 108%. Moreover, the “Numbers of inhibitory effect” value in [5] was 0. In assay [5], the “inhibition effect on different cancer cell lines (in words)” value is on record as “significant inhibition effect”.
As for `CCCCNc1cc(C(=O)O)cc(S(N)(=O)=O)c1Oc1ccccc1` [Bumetanide], the viability at 10 µM in [1] (setting [15]) was 116%; in [2] (setting [16]), 88.2%; in [3] (setting [17]) it was 105%; in [4] (setting [18]), 66.8%; in assay [6] (setting [19]), 98.8%; in assay [7] (72 h, Table 3, drug 10 μM) it was 92.6%. Moreover, the viability at 10 µM came out at 69.9% in [8] (72 h, Table 3, drug 10 μM); 98.6% in [9] (72 h, Table 3, drug 10 μM); 98.3% in [10]; 79.5% in assay [11] (72 h, Table 3, drug 10 μM); 86% in assay [12] (setting [20]); 67.6% in assay [13] (setting [21]). The viability at 10 µM in assay [14] (72 h, Table 3, drug 10 μM) was 72.7%. In assay [5], the “Numbers of inhibitory effect” value was 0. Moreover, the “inhibition effect on different cancer cell lines (in words)” value in assay [5] is “significant inhibition effect”.
On to `CCOC(=O)[C@H](CCc1ccccc1)N[C@@H](C)C(=O)N1[C@H](C(=O)O)C[C@@H]2CCC[C@@H]21` [Ramipril (Altace), Ramipril], for which the viability at 10 µM came out at 82.4% in assay [1] (setting [15]); 99.6% in [2] (setting [16]); 135% in [3] (setting [17]); 108% in [4] (setting [18]); 84% in [6] (setting [19]); 114% in assay [7] (72 h, Table 3, drug 10 μM). The viability at 10 µM amounted to 99.8% in assay [8] (72 h, Table 3, drug 10 μM); 81.9% in [9] (72 h, Table 3, drug 10 μM); 107% in assay [10]; 84.3% in assay [11] (72 h, Table 3, drug 10 μM); 106% in assay [12] (setting [20]); 120% in [13] (setting [21]). Besides, the viability at 10 µM in assay [14] (72 h, Table 3, drug 10 μM) was 104%. Moreover, the “Numbers of inhibitory effect” value in assay [5] turned out to be 0. Also, the “inhibition effect on different cancer cell lines (in words)” value in assay [5] is on record as “significant inhibition effect”.
Regarding `Cc1cnc(C(=O)O)c[n+]1[O-]` [Acipimox], the viability at 10 µM is 75.8% in assay [1] (setting [15]); 108% in [2] (setting [16]); 89.6% in assay [3] (setting [17]); 79.4% in assay [4] (setting [18]); 80.2% in [6] (setting [19]); 99.8% in [7] (72 h, Table 3, drug 10 μM). Moreover, the viability at 10 µM in [8] (72 h, Table 3, drug 10 μM) turned out to be 87.5%; in [9] (72 h, Table 3, drug 10 μM), 77.4%; in assay [10], 102%; in assay [11] (72 h, Table 3, drug 10 μM), 87.6%; in assay [12] (setting [20]) it was 99.8%; in [13] (setting [21]), 124%. The viability at 10 µM in [14] (72 h, Table 3, drug 10 μM) came out at 94.5%. Also, the “Numbers of inhibitory effect” value in [5] is recorded as 0. For the same molecule, in assay [5], the “inhibition effect on different cancer cell lines (in words)” value is “significant inhibition effect”.
